Laboratory results from patent US4880817A, “O-functionalized derivatives of substituted isoquinolin-3-ols having cardiotonic and/or phosphodiesterase fraction III inhibiting properties and/or renal vasodilating properties” (Ortho Pharmaceutical Corporation, priority 1987, dated 1989).
Like-named read-outs stand apart in the source and are kept apart here.

Experiments:
adult mongrel dogs [1] = assay: Acute in vivo cardiotonic activity in anesthetized dogs; set-up: species or system mongrel dog; settings: Canis lupus familiaris, iv, relative to controls; for change in vivo at 0.375 mg/kg: dose 0.375 mpk; for change in vivo at 0.875 mg/kg: dose 0.875 mpk; for change in vivo at 1.87 mg/kg: dose 1.87 mpk
Procedure: The acute in vivo cardiotonic activity of compounds prepared according to the present invention was determined according to a modification of the procedure described by Alousi et al., Circ.
In particular, adult mongrel dogs were anesthetized with sodium pentobarbital and were artificially respired. Arterial pressure was monitored via a femoral artery, and the pulse pressure was used to trigger a cardiotachometer for heart rate. Left ventricular pressure was determined with a Millar catheter, and dP/dT (the change in ventricular pressure with time) was derived. Cardiac output was determined by measuring ascending aortic blood flow with an electromagnetic flow probe, and myocardial contractile force was measured with a Walton Brodie strain gauge sutured to the right ventricle. Lead II EKG was also recorded.
A standard dose (10 μg/kg/min) of dopamine was administered to assess myocardial responsiveness.
Compounds of the invention were administered by intravenous infusion and the effects on cardiovascular parameters were determined.

adult mongrel dogs [2] = assay: Renal vasodilating activity in anesthetized dogs; type: in vivo, mongrel dog; settings: Canis lupus familiaris
Procedure: Goldberg et al., J. Pharmacol. Exp. Ther., 163, 188 (1968), performed an investigation of the structural requirements for dopamine-like renal vasodilation of phenethylamines and apomorphine. The following procedure is a variation of the assay described in that report.
Adult mongrel dogs were anesthetized and surgically prepared for electromagnetic measurement of renal artery blood flow. A carotid artery was cannulated for measuring arterial blood pressure and drugs were administered intravenously or intraarterially (via the renal artery). Heart rate was monitored with a cardiotachometer. Renal vascular resistance was calculated as the ratio of mean arterial blood pressure to renal artery blood flow. Dopamine was infused intravenously at 3 μg/kg/min for ten minutes (at an infusion rate of about 1 ml/min) to determine responsiveness of each dog to renal dopamine receptor stimulation. Cumulative dose-response data were obtained by infusing a compound of this invention at progressively increasing (usually three-fold) infusion rates, each dose being infused for five minutes. The maximum percent change from pre-drug control in renal artery blood flow (or in renal vascular resistance) was determined for each infusion dose.
RBF, RVR, MABP, and HR values are percent changes in renal blood flow, renal vascular resistance, mean arterial blood pressure, and heart rate, respectively, relative to control values.

[3] = read-out: CF: percent change in cardiac force
[4] = read-out: HR: percent change in heart rate
[5] = read-out: MABP: percent change in mean arterial blood pressure
[6] = read-out: dP/dT: maximum percent change in left ventricular pressure with time
[7] = dose 6.2 mpk, relative to controls, read-out: HR: percent change in heart rate
[8] = dose 6.2 mpk, relative to controls, read-out: RBF: percent change in renal blood flow
[9] = dose 6.2 mpk, relative to controls, read-out: RVR: percent change in renal vascular resistance
[10] = read-out: HR: percent change in heart rate, dose 6.2 mpk, relative to controls
[11] = read-out: MABP: percent change in mean arterial blood pressure, dose 6.2 mpk, relative to controls
[12] = read-out: RBF: percent change in renal blood flow, dose 6.2 mpk, relative to controls
[13] = read-out: RVR: percent change in renal vascular resistance, dose 6.2 mpk, relative to controls
[14] = dose 6.2 mpk, relative to controls, read-out: MABP: percent change in mean arterial blood pressure

CCOc1cc2c(C)nc(OC(=O)CC)c([N+](=O)[O-])c2cc1OC [Cmpd 4]
change in vivo at 0.375 mg/kg (adult mongrel dogs [1]; [3]): 100%
change in vivo at 0.375 mg/kg (adult mongrel dogs [1]; [4]): 7%
change in vivo at 0.375 mg/kg (adult mongrel dogs [1]; [5]): -25%
change in vivo at 0.375 mg/kg (adult mongrel dogs [1]; [6]): 46%

COc1cc2c(C)nc(OC(=O)c3ccccc3)c([N+](=O)[O-])c2cc1OC [Cmpd 7]
change in vivo at 0.875 mg/kg (adult mongrel dogs [1]; [3]): 59%
change in vivo at 0.875 mg/kg (adult mongrel dogs [1]; [4]): 4%
change in vivo at 0.875 mg/kg (adult mongrel dogs [1]; [5]): -10%
change in vivo at 0.875 mg/kg (adult mongrel dogs [1]; [6]): 34%

CCOc1cc2c(C)nc(OC(=O)c3ccccc3)c([N+](=O)[O-])c2cc1OC [Cmpd 8]
change in vivo at 0.375 mg/kg (adult mongrel dogs [1]; [3]): 124%
change in vivo at 0.375 mg/kg (adult mongrel dogs [1]; [4]): 10%
change in vivo at 0.375 mg/kg (adult mongrel dogs [1]; [5]): -20%
change in vivo at 0.375 mg/kg (adult mongrel dogs [1]; [6]): 54%

COc1cc2c(C)nc(OC(=O)C(C)(C)C)c([N+](=O)[O-])c2cc1OC [Cmpd 12]
change in vivo at 6.2 mg/kg (adult mongrel dogs [2]; [7]): 12%
change in vivo at 6.2 mg/kg (adult mongrel dogs [2]; [8]): 38%
change in vivo at 6.2 mg/kg (adult mongrel dogs [2]; [9]): -26%
change in vivo at 1.87 mg/kg (adult mongrel dogs [1]; [3]): 70%
change in vivo at 1.87 mg/kg (adult mongrel dogs [1]; [4]): 14%
change in vivo at 1.87 mg/kg (adult mongrel dogs [1]; [5]): -10%
change in vivo at 1.87 mg/kg (adult mongrel dogs [1]; [6]): 51%

COc1cc2c(C)nc(OC(=O)N(C)C)c([N+](=O)[O-])c2cc1OC [Cmpd 13]
change in vivo at 6.2 mg/kg (adult mongrel dogs [2]; [10]): 12%
change in vivo at 6.2 mg/kg (adult mongrel dogs [2]; [11]): -5%
change in vivo at 6.2 mg/kg (adult mongrel dogs [2]; [12]): 8%
change in vivo at 6.2 mg/kg (adult mongrel dogs [2]; [13]): -12%
change in vivo at 1.87 mg/kg (adult mongrel dogs [1]; [3]): 49%
change in vivo at 1.87 mg/kg (adult mongrel dogs [1]; [4]): 6%
change in vivo at 1.87 mg/kg (adult mongrel dogs [1]; [5]): -8%
change in vivo at 1.87 mg/kg (adult mongrel dogs [1]; [6]): 24%

CCOc1cc2c([N+](=O)[O-])c(OC(=O)C(C)(C)C)nc(C)c2cc1OC [Cmpd 23]
change in vivo at 1.87 mg/kg (adult mongrel dogs [1]; [3]): 27%
change in vivo at 1.87 mg/kg (adult mongrel dogs [1]; [4]): 5%
change in vivo at 1.87 mg/kg (adult mongrel dogs [1]; [5]): 3%
change in vivo at 1.87 mg/kg (adult mongrel dogs [1]; [6]): 24%

COc1cc2c(C)nc(OS(=O)(=O)N(C)C)c([N+](=O)[O-])c2cc1OC [Cmpd 25]
change in vivo at 6.2 mg/kg (adult mongrel dogs [2]; [7]): 32%
change in vivo at 6.2 mg/kg (adult mongrel dogs [2]; [14]): -12%
change in vivo at 6.2 mg/kg (adult mongrel dogs [2]; [8]): 61%
change in vivo at 6.2 mg/kg (adult mongrel dogs [2]; [9]): -46%
change in vivo at 1.87 mg/kg (adult mongrel dogs [1]; [3]): 49%
change in vivo at 1.87 mg/kg (adult mongrel dogs [1]; [4]): 5%
change in vivo at 1.87 mg/kg (adult mongrel dogs [1]; [5]): 12%
change in vivo at 1.87 mg/kg (adult mongrel dogs [1]; [6]): 61%

CCN(CC)C(=O)Oc1nc(C)c2cc(OC)c(OC)cc2c1[N+](=O)[O-] [Cmpd 27, 3-Diethylcarbamyloxy-6,7-dimethoxy-1-methyl-4-nitroisoquinoline]
change in vivo at 6.2 mg/kg (adult mongrel dogs [2]; [10]): 13%
change in vivo at 6.2 mg/kg (adult mongrel dogs [2]; [11]): -12%
change in vivo at 6.2 mg/kg (adult mongrel dogs [2]; [13]): -30%
change in vivo at 1.87 mg/kg (adult mongrel dogs [1]; [3]): 87%
change in vivo at 1.87 mg/kg (adult mongrel dogs [1]; [4]): 46%
change in vivo at 1.87 mg/kg (adult mongrel dogs [1]; [5]): 17%
change in vivo at 1.87 mg/kg (adult mongrel dogs [1]; [6]): 41%

CCOc1cc2c(C)nc(OC(=O)N(CC)CC)c([N+](=O)[O-])c2cc1OC [Cmpd 28]
change in vivo at 6.2 mg/kg (adult mongrel dogs [2]; [10]): 5%
change in vivo at 6.2 mg/kg (adult mongrel dogs [2]; [11]): -18%
change in vivo at 6.2 mg/kg (adult mongrel dogs [2]; [12]): 50%
change in vivo at 6.2 mg/kg (adult mongrel dogs [2]; [13]): -45%
change in vivo at 0.875 mg/kg (adult mongrel dogs [1]; [3]): 71%
change in vivo at 0.875 mg/kg (adult mongrel dogs [1]; [4]): 27%
change in vivo at 0.875 mg/kg (adult mongrel dogs [1]; [5]): -4%
change in vivo at 0.875 mg/kg (adult mongrel dogs [1]; [6]): 70%

CCN(CC)c1c(OC(C)=O)nc(C)c2cc(OC)c(OC)cc12 [Cmpd 29, 3-Acetoxy-4-(N,N-diethylamino)-6,7-dimethoxy-1-methylisoquinoline 1/2 Hydrate]
change in vivo at 1.87 mg/kg (adult mongrel dogs [1]; [3]): 79%
change in vivo at 1.87 mg/kg (adult mongrel dogs [1]; [4]): 13%
change in vivo at 1.87 mg/kg (adult mongrel dogs [1]; [5]): 6%
change in vivo at 1.87 mg/kg (adult mongrel dogs [1]; [6]): 58%

CCC(=O)Nc1c(OC(=O)CC)nc(C)c2cc(OC)c(OC)cc12 [Cmpd 33, 6,7-Dimethoxy-1-methyl-4-[N-propanamido]-3-propanoyloxyisoquinoline]
change in vivo at 6.2 mg/kg (adult mongrel dogs [2]; [7]): -9%
change in vivo at 6.2 mg/kg (adult mongrel dogs [2]; [14]): -9%
change in vivo at 6.2 mg/kg (adult mongrel dogs [2]; [8]): 41%
change in vivo at 6.2 mg/kg (adult mongrel dogs [2]; [9]): -35%
change in vivo at 1.87 mg/kg (adult mongrel dogs [1]; [3]): 132%
change in vivo at 1.87 mg/kg (adult mongrel dogs [1]; [4]): 18%
change in vivo at 1.87 mg/kg (adult mongrel dogs [1]; [5]): 17%
change in vivo at 1.87 mg/kg (adult mongrel dogs [1]; [6]): 84%

COc1cc2c(C)nc(OC(=O)N(c3ccccc3)c3ccccc3)c(N)c2cc1OC [Cmpd 36]
change in vivo at 1.87 mg/kg (adult mongrel dogs [1]; [3]): 26%
change in vivo at 1.87 mg/kg (adult mongrel dogs [1]; [4]): 9%
change in vivo at 1.87 mg/kg (adult mongrel dogs [1]; [5]): -1%
change in vivo at 1.87 mg/kg (adult mongrel dogs [1]; [6]): 26%

COc1cc2c(C)nc(OC(=O)N(C)C)c(N)c2cc1OC [Cmpd 39]
change in vivo at 1.87 mg/kg (adult mongrel dogs [1]; [3]): 76%
change in vivo at 1.87 mg/kg (adult mongrel dogs [1]; [4]): 16%
change in vivo at 1.87 mg/kg (adult mongrel dogs [1]; [5]): -1%
change in vivo at 1.87 mg/kg (adult mongrel dogs [1]; [6]): 73%

CCCC(=O)Oc1nc(C)c2cc(OC)c(OC)cc2c1[N+](=O)[O-] [Cmpd 41]
change in vivo at 1.87 mg/kg (adult mongrel dogs [1]; [3]): 166%
change in vivo at 1.87 mg/kg (adult mongrel dogs [1]; [4]): 29%
change in vivo at 1.87 mg/kg (adult mongrel dogs [1]; [5]): -34%
change in vivo at 1.87 mg/kg (adult mongrel dogs [1]; [6]): 62%

CCCCNC(=O)Nc1c(OC(=O)N2CCNCC2)nc(C)c2cc(OC)c(OC)cc12 [Cmpd 80]
change in vivo at 1.2 mg/kg (adult mongrel dogs [2]; read-out: HR: percent change in heart rate, dose 1.2 mpk, relative to controls): 2%
change in vivo at 1.2 mg/kg (adult mongrel dogs [2]; read-out: MABP: percent change in mean arterial blood pressure, dose 1.2 mpk, relative to controls): 0%
change in vivo at 1.2 mg/kg (adult mongrel dogs [2]; read-out: RBF: percent change in renal blood flow, dose 1.2 mpk, relative to controls): 25%
change in vivo at 1.2 mg/kg (adult mongrel dogs [2]; read-out: RVR: percent change in renal vascular resistance, dose 1.2 mpk, relative to controls): -16%

CCCCCC(=O)Nc1c(OC(=O)N(CC)CC)nc(C)c2cc(OC)c(OC)cc12 [Cmpd 81]
change in vivo at 6.2 mg/kg (adult mongrel dogs [2]; [7]): -8%
change in vivo at 6.2 mg/kg (adult mongrel dogs [2]; [14]): 9%
change in vivo at 6.2 mg/kg (adult mongrel dogs [2]; [8]): 39%
change in vivo at 6.2 mg/kg (adult mongrel dogs [2]; [9]): -21%
